Experimental data taken from US4490370A, “Naphthylglycyl cephalosporin derivatives” (priority 1983, dated 1984).
In brackets after ≈: the same amount, converted by molar mass. Where two headings read alike, the source gives them in different places.

What was measured:
Staph. aureus = experiment: Agar dilution MIC, Staph. aureus; format: cell-based; conditions: Staphylococcus aureus
Excerpt: (§1) The following Tables present typical minimum inhibitory concentrations (MIC's) in μg/ml for the compounds when evaluated against the indicated microorganisms.

H. influ. = experiment: Agar dilution MIC, H. influenza; format: cell-based; conditions: read-out: MIC
Excerpt: as §1

B. Fragilis = experiment: Expanded spectrum MIC, B. Fragilis; format: cell-based; conditions: Bacteroides fragilis, Table III
Excerpt: (§2) A typical and preferred compound provided by this invention is 7-(2-naphthylglycylamido)-3-methyl-3-cephem-4-carboxylic acid, the compound of Example 3. The antibacterial activity of this compound and several others of the invention has been determined in standard in vitro agar dilution assays against a variety of gram positive microorganisms. The following Tables present typical minimum inhibitory concentrations (MIC's) in μg/ml for the compounds when evaluated against the indicated microorganisms. MIC's for several known compounds are also presented for comparison.

[1] = tested on: β-lactamase (organism 265A); experiment: Stability to β-lactamases, 265A; format: biochemical; conditions: lower numbers mean greater stability
[2] = tested on: β-lactamase (organism PS185); experiment: Stability to β-lactamases, PS185; format: biochemical; conditions: lower numbers mean greater stability
β-lactamase (TEM) = experiment: Stability to β-lactamases, TEM; format: biochemical; conditions: lower numbers mean greater stability
[3] = tested on: β-lactamase (organism 1082E); experiment: Stability to β-lactamases, 1082E; format: biochemical; conditions: lower numbers mean greater stability
[4] = tested on: β-lactamase (organism 1313G); experiment: Stability to β-lactamases, 1313G; format: biochemical; conditions: lower numbers mean greater stability
P. magnus = experiment: Susceptibility of anaerobic cocci, agar-dilution, 24 hour MIC; format: cell-based; conditions: Finegoldia magna
Excerpt: as §2
(§3) Susceptibility of Anaerobic Cocci
(§4) Isolates by the Agar-Dilution
(§5) Method-24 hour MIC's (μg/ml)

P. prevoti = experiment: as above; format: cell-based; conditions: isolate 1293
Excerpt: as §2, §3, §4, §5

[5] = tested on: Peptococcus Asaccharolyticus; experiment: as above; format: cell-based; conditions: Peptoniphilus asaccharolyticus, isolate 1344
Excerpt: as §2, §3, §4, §5

Peptococcus Constellatus = experiment: as above; format: cell-based; conditions: Streptococcus constellatus, isolate 1468
Excerpt: as §2, §3, §4, §5

[6] = tested on: Peptostreptococcus anaerobius; experiment: as above; format: cell-based
Excerpt: as §2, §3, §4, §5

[7] = tested on: Peptostreptococcus intermedius; experiment: as above; format: cell-based
Excerpt: as §2, §3, §4, §5

Bacteroides fragilis = experiment: Susceptibility of anaerobes, agar-dilution, 24 hour MIC; format: cell-based
Propionibacterum acnes = experiment: as above; format: cell-based
Excerpt: as §2, §3, §4, §5

Staph. epi = experiment: Agar dilution MIC, Staph. epi; format: cell-based
Excerpt: as §1

Strep. A = experiment: Agar dilution MIC, Strep. A; format: cell-based
Excerpt: as §2

Strep. PN = experiment: Agar dilution MIC, Strep. PN; format: cell-based; conditions: Table I, strain PARK; read-out: MIC
Excerpt: as §1

Klebsiella = experiment: Agar dilution MIC, Klebsiella; format: cell-based; conditions: Klebsiella
Excerpt: as §2

[8] = Table III, strain 8438, read-out: MIC
[9] = Table III, strain 9050, read-out: MIC
[10] = Table III, strain 9136, read-out: MIC

## N[C@@H](C(=O)N[C@@H]1C(=O)N2C(C(=O)O)=C(Cl)CS[C@H]12)c1ccccc1 [Cefaclor, 7-phenylglycylamido-3-chloro-3-cephem-4-carboxylic acid, reference compound]
Staph. aureus; [8]
  MIC: 1 µg/mL (≈ 2.72 µM)
Staph. aureus; [9]
  MIC: 2 µg/mL (≈ 5.44 µM)
Staph. aureus; [10]
  MIC: 2 µg/mL (≈ 5.44 µM)
Staph. aureus; Table III, strain 9290, read-out: MIC
  MIC: 8 µg/mL (≈ 21.8 µM)
Staph. aureus; Table III, strain 9767, read-out: MIC
  MIC: 2 µg/mL (≈ 5.44 µM)
H. influ.; Table III, strain 101
  MIC: 2 µg/mL (≈ 5.44 µM)
H. influ.; Table III, strain 102
  MIC: 16 µg/mL (≈ 43.5 µM)
H. influ.; Table III, strain 103
  MIC: 2 µg/mL (≈ 5.44 µM)
H. influ.; Table III, strain 104
  MIC: 1 µg/mL (≈ 2.72 µM)
H. influ.; Table III, strain 105
  MIC: 1 µg/mL (≈ 2.72 µM)
H. influ.; Table III, strain 106
  MIC: 2 µg/mL (≈ 5.44 µM)
H. influ.; Table III, strain 107
  MIC: 2 µg/mL (≈ 5.44 µM)
H. influ.; Table III, strain 108
  MIC: 1 µg/mL (≈ 2.72 µM)
H. influ.; Table III, strain 109
  MIC: 2 µg/mL (≈ 5.44 µM)
H. influ.; Table III, strain 110
  MIC: 1 µg/mL (≈ 2.72 µM)
H. influ.; Table III, strain 111
  MIC: 1 µg/mL (≈ 2.72 µM)
B. Fragilis; strain 180-821
  MIC: 64 µg/mL (≈ 174 µM)
B. Fragilis; strain 10668
  MIC: 64 µg/mL (≈ 174 µM)
B. Fragilis; strain 10683
  MIC: 16 µg/mL (≈ 43.5 µM)
B. Fragilis; strain 10695
  MIC: 32 µg/mL (≈ 87 µM)
B. Fragilis; strain 10750
  MIC: > 64 µg/mL
B. Fragilis; strain 10774
  MIC: > 64 µg/mL
B. Fragilis; strain 10817
  MIC: 64 µg/mL (≈ 174 µM)
B. Fragilis; strain 10837
  MIC: > 64 µg/mL
B. Fragilis; strain 107266
  MIC: 16 µg/mL (≈ 43.5 µM)
B. Fragilis; strain 107268
  MIC: 16 µg/mL (≈ 43.5 µM)
[1]
  Stability to β-lactamases: 138
[2]
  Stability to β-lactamases: 71
β-lactamase (TEM)
  Stability to β-lactamases: 23
[3]
  Stability to β-lactamases: 65
[4]
  Stability to β-lactamases: 4605

## CO[C@@]1(NC(=O)Cc2cccs2)C(=O)N2C(C(=O)O)=C(COC(N)=O)CS[C@@H]21 [Cefoxitin, reference compound]
P. magnus; isolate 1401
  MIC: 2 µg/mL (≈ 4.68 µM)
P. magnus; isolate 1477
  MIC: 0.5 µg/mL (≈ 1.17 µM)
P. prevoti
  MIC: 1 µg/mL (≈ 2.34 µM)
[5]
  MIC: 0.25 µg/mL (≈ 0.585 µM)
Peptococcus Constellatus
  MIC: 8 µg/mL (≈ 18.7 µM)
[6]; isolate 8
  MIC: 0.25 µg/mL (≈ 0.585 µM)
[6]; isolate 52
  MIC: 2 µg/mL (≈ 4.68 µM)
[6]; isolate 1477
  MIC: 1 µg/mL (≈ 2.34 µM)
[7]; isolate 1264
  MIC: 1 µg/mL (≈ 2.34 µM)
[7]; isolate 1524
  MIC: 4 µg/mL (≈ 9.36 µM)
[7]; isolate 1624
  MIC: 4 µg/mL (≈ 9.36 µM)
Bacteroides fragilis; isolate 200
  MIC: 8 µg/mL (≈ 18.7 µM)
Bacteroides fragilis; isolate 206
  MIC: 16 µg/mL (≈ 37.4 µM)
Bacteroides fragilis; isolate 3625
  MIC: 16 µg/mL (≈ 37.4 µM)
Bacteroides fragilis; isolate 7371A
  MIC: 8 µg/mL (≈ 18.7 µM)
Bacteroides fragilis; isolate 19671
  MIC: 16 µg/mL (≈ 37.4 µM)
Bacteroides fragilis; isolate 19681
  MIC: 32 µg/mL (≈ 74.9 µM)
Propionibacterum acnes; isolate 44
  MIC: 2 µg/mL (≈ 4.68 µM)
Propionibacterum acnes; isolate 79
  MIC: 8 µg/mL (≈ 18.7 µM)
Propionibacterum acnes; isolate 101
  MIC: 4 µg/mL (≈ 9.36 µM)
Propionibacterum acnes; isolate 104
  MIC: 4 µg/mL (≈ 9.36 µM)
Propionibacterum acnes; isolate 105
  MIC: 2 µg/mL (≈ 4.68 µM)
Propionibacterum acnes; isolate 5191
  MIC: ≤ 0.06 µg/mL
Propionibacterum acnes; isolate 5227
  MIC: 2 µg/mL (≈ 4.68 µM)
Propionibacterum acnes; isolate 5228
  MIC: 4 µg/mL (≈ 9.36 µM)
Propionibacterum acnes; isolate 5229
  MIC: 2 µg/mL (≈ 4.68 µM)
Propionibacterum acnes; isolate 5246
  MIC: 4 µg/mL (≈ 9.36 µM)

## CC1=C(C(=O)O)N2C(=O)[C@@H](NC(=O)[C@H](N)c3ccccc3)[C@H]2SC1 [Cephalexin, reference compound]
Staph. aureus; Table I, strain S13E
  MIC: 128 µg/mL (≈ 368 µM)
Staph. aureus; Table III expanded spectrum, strain 8725, read-out: MIC
  MIC: 2 µg/mL (≈ 5.76 µM)
Staph. aureus; [8]
  MIC: 1 µg/mL (≈ 2.88 µM)
Staph. aureus; Table III, strain 8787, read-out: MIC
  MIC: 1 µg/mL (≈ 2.88 µM)
Staph. aureus; [9]
  MIC: 2 µg/mL (≈ 5.76 µM)
Staph. aureus; [10]
  MIC: 2 µg/mL (≈ 5.76 µM)
Staph. epi
  MIC: 8 µg/mL (≈ 23 µM)
Staph. epi; Table I, strain EPI1, read-out: MIC
  MIC: 32 µg/mL (≈ 92.1 µM)
Strep. A
  MIC: 0.5 µg/mL (≈ 1.44 µM)
Strep. PN
  MIC: 2 µg/mL (≈ 5.76 µM)
H. influ.; Table I, strain 251
  MIC: 8 µg/mL (≈ 23 µM)
H. influ.; Table I, strain BRUN
  MIC: 8 µg/mL (≈ 23 µM)
H. influ.; Table III, strain 101
  MIC: 8 µg/mL (≈ 23 µM)
H. influ.; Table III, strain 102
  MIC: 16 µg/mL (≈ 46.1 µM)
H. influ.; Table III, strain 103
  MIC: 16 µg/mL (≈ 46.1 µM)
H. influ.; Table III, strain 104
  MIC: 16 µg/mL (≈ 46.1 µM)
H. influ.; Table III, strain 105
  MIC: 4 µg/mL (≈ 11.5 µM)
H. influ.; Table III, strain 106
  MIC: 8 µg/mL (≈ 23 µM)
H. influ.; Table III, strain 107
  MIC: 8 µg/mL (≈ 23 µM)
H. influ.; Table III, strain 108
  MIC: 8 µg/mL (≈ 23 µM)
H. influ.; Table III, strain 109
  MIC: 16 µg/mL (≈ 46.1 µM)
H. influ.; Table III, strain 110
  MIC: 8 µg/mL (≈ 23 µM)
H. influ.; Table III, strain 111
  MIC: 16 µg/mL (≈ 46.1 µM)
Klebsiella
  MIC: 4 µg/mL (≈ 11.5 µM)
B. Fragilis; strain 180-821, read-out: MIC
  MIC: 16 µg/mL (≈ 46.1 µM)
B. Fragilis; strain 10668, read-out: MIC
  MIC: > 64 µg/mL
B. Fragilis; strain 10683, read-out: MIC
  MIC: > 64 µg/mL
B. Fragilis; strain 10695, read-out: MIC
  MIC: 64 µg/mL (≈ 184 µM)
B. Fragilis; strain 10750, read-out: MIC
  MIC: 64 µg/mL (≈ 184 µM)
B. Fragilis; strain 10774, read-out: MIC
  MIC: > 64 µg/mL
B. Fragilis; strain 10817, read-out: MIC
  MIC: 16 µg/mL (≈ 46.1 µM)
B. Fragilis; strain 10837, read-out: MIC
  MIC: 16 µg/mL (≈ 46.1 µM)
B. Fragilis; strain 107266, read-out: MIC
  MIC: 32 µg/mL (≈ 92.1 µM)
B. Fragilis; strain 107268, read-out: MIC
  MIC: 16 µg/mL (≈ 46.1 µM)
